Laboratory results reported in patent US20230348378A1, “SMALL MOLECULE ALBUMIN BINDERS” (Oregon Health & Science University, priority 2020, published 2023).
One block for each compound: values may come before it. Starred links: 1 amine or outer side, 2 acyl side, 3 side chain; linkers in the order of their positions; H or OH if unused. Positions of bridges follow the written chain, without caps; N, C: chain ends. Non-standard residues stand in square brackets, D forms with d. Residues, ends and D or L forms follow the SMILES beside them. *: point of attachment. DOTA = O=C(O)CN1CCN(CC(=O)O)CCN(CC(=O)*)CCN(CC(=O)O)CC1; NH(CH2CH2O)4CH2CO = O=C(COCCOCCOCCOCCN[*:1])[*:2]; X2 = O=C(CCCc1ccc(C(F)(F)F)c(F)c1)*; X1 = O=C(CCCc1ccc(C(F)(F)F)cc1)*

Assays:
PSMA+ PC3pip xenograft = tested on: PSMA+ PC3pip xenograft; parameters: species or system mice; settings: mouse, in vivo
Procedure: Biodistribution studies were performed 2 weeks after the tumor inoculation, when the size of tumor reached 5 mm. ^111In-labeled albumin binder-radioligand conjugates (1.85 MBq, 100 μL) were then administered via a lateral tail vein. The mice were sacrificed at 1, 2, 16, 24, or 48 h post-injections. Selected organs were collected and weighed, and the radioactivity was measured by the γ counter (Packard, Cobra E5003). The results were calculated as percentage of the injected dose per gram of mass (% ID/g).

BxPC3 xenograft = assay: Biodistribution in mice bearing BxPC3 xenograft; format: in vivo
[1] = molecular target: human serum albumin (HSA) (Homo sapiens, UniProt P02768); assay: In vitro albumin protein binding ultrafiltration assay; settings: for change of albumin binding affinity versus the corresponding ABX conjugate: D-ABCF3 vs ABCF3, hABCF3P vs ABCF3P, hABF3P vs ABF3P, εABCF3 vs ABCF3
Sequence of human serum albumin (HSA) (P02768 25-609): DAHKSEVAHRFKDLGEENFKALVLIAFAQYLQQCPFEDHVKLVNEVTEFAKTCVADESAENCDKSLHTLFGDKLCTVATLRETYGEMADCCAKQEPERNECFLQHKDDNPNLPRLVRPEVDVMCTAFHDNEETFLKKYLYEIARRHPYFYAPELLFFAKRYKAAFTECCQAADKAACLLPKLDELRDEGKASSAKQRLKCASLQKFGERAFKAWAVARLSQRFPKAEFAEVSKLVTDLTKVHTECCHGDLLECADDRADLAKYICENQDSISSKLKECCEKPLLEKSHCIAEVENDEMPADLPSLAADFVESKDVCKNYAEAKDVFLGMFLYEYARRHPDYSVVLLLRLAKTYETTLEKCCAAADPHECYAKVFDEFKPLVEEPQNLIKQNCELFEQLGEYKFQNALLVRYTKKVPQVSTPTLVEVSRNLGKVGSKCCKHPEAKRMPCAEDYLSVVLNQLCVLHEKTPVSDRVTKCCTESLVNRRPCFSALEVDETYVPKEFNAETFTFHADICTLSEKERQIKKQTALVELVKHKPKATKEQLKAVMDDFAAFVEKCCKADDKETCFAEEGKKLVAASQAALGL
Procedure: Following the published protocol, ultrafiltration assay was performed to assess albumin-binding properties of ^111In or ^64Cu labeled albumin binder-radioligand conjugates. ^111In or ^64Cu radiolabeling was conducted in NH4OAc (0.2 M, pH=7.0) buffer at 80° C. for 30 min with a specific activity of 3.7 MBq/nmol (100 μCi/nmol). The resulting albumin binder-radioligand conjugate (10 μL, 10 μM) was mixed with 100 μL human serum albumin (HSA, 1.0 mM in PBS 1×) and 90 μL PBS, followed by shaking gently at 37° C. for 30 min. After the incubation, 80 μL of each solution was loaded on the Zeba™ spin desalting column (7K MWCO) and centrifuged at 1500 g for 2 min. Radioactivity in 20 μL of each filtration and 10 μL mixture (before filtration) were quantified by the γ counter. The filtration rate of each sample was calculated as filtered counts/(mixture counts×2)×100%, all obtained results were then normalized by setting standard ABCF3 moiety as 74.4%. for the comparison purpose. The experiment was performed with triplicates. For working curve, different final concentrations of HSA varied from 10-1500 μM were used, followed the same protocol.

[2] = in vivo evaluation of FRGD without albumin binder
[3] = filtration assay, [HSA]=500 μM, [tracers]=0.5 μM

SMILES: O=C(O)CC[C@H](NC(=O)N[C@@H](CCCCNC(=O)[C@H](Cc1ccc2ccccc2c1)NC(=O)[C@H]1CC[C@H](CNC(=O)[C@H](CCCCNC(=O)CN2CCN(CC(=O)O)CCN(CC(=O)O)CCN(CC(=O)O)CC2)NC(=O)CCC(=O)N[C@@H](CCCCNC(=O)CCCc2ccc(C(F)(F)F)cc2)C(=O)O)CC1)C(=O)O)C(=O)O (64Cu complex, metal not drawn) [PSMA617-ABCF3]
increase of specific tumor uptake compared to PSMA617 (PSMA+ PC3pip xenograft): > 2 × | tumor/nontumor ratios compared to PSMA617 (PSMA+ PC3pip xenograft): enhance tumor/nontumor ratios

SMILES: CC(C)C[C@@H]1NC(=O)[C@H](CC(=O)O)NC(=O)CNC(=O)[C@H](CCCNC(=N)N)NC(=O)[C@H](Cc2ccccc2)NC(=O)[C@H](CCCCN)N(C)C(=O)[C@H]2CCCN2C(=O)[C@H](Cc2ccccc2)NC(=O)[C@H](C)NC1=O (111In complex, metal not drawn) [FRGD]
kidney uptake (BxPC3 xenograft; 111In labeled, without ABCF3): very high | non-tumor uptakes (BxPC3 xenograft; [2]): high non-tumor uptakes | tumor uptake (BxPC3 xenograft; [2]): relatively low tumor uptake

filtration percentage (normalized) ([1]; 64Cu-labeled DOTA-albumin binder conjugate, [HSA]=500 μM, [tracers]=0.5 μM, value set as normalisation standard (average)): 75%
SMILES: [N-]=[N+]=NCCCC[C@H](NC(=O)CN1CCC(CC(=O)O)CCN(CC(=O)O)CCN(CC(=O)O)CC1)C(=O)NCCCCCC(=O)N[C@@H](CCCCNC(=O)CCCc1ccc(C(F)(F)F)cc1)C(=O)O (some centres unmarked) [ABCF3]

change of albumin binding affinity versus the corresponding ABX conjugate [1, 3]: slightly increased binding affinity
SMILES: [N-]=[N+]=NCCCC[C@H](NC(=O)CN1CCC(CC(=O)O)CCN(CC(=O)O)CCN(CC(=O)O)CC1)C(=O)NCCCCCC(=O)N[C@H](CCCCNC(=O)CCCc1ccc(C(F)(F)F)cc1)C(=O)O (stereo partly drawn) [D-ABCF3]

SMILES: CC(C)C[C@@H]1NC(=O)[C@H](CC(=O)O)NC(=O)CNC(=O)[C@H](CCCNC(=N)N)NC(=O)CNC(=O)[C@H]([C@@H](C)O)NC(=O)[C@@H](NC(=O)[C@H](CCCNC(=N)N)NC(=O)CNC(=O)CN2CCN(CC(=O)O)CCN(CC(=O)O)CCN(CC(=O)O)CC2)CSSC[C@@H](C(=O)N[C@@H](Cc2ccc(O)cc2)C(=O)N2CCC[C@H]2C(=O)N[C@@H](CC(=O)O)C(=O)NCCOCCOCCOCCOCC(=O)N[C@@H](CCCCNC(=O)CCCc2ccc(C(F)(F)F)c(F)c2)C(=O)O)NC(=O)[C@H](CC(C)C)NC(=O)[C@H](CCCNC(=N)N)NC(=O)CNC1=O [SFLAP3-ABCF3-3F] ({DOTA}-GRCTGRGDLGRLCYPD[NH(CH2CH2O)4CH2CO]K(X2)-OH; disulfide 3-13)
in vivo performance (biodistribution, tumor/nontumor ratios) (BxPC3 xenograft; SFLAP3 conjugates with various ABX, 24 h): best in vivo performance among all the tested ABX

SMILES: CC(C)C[C@@H]1NC(=O)[C@H](CC(=O)O)NC(=O)CNC(=O)[C@H](CCCNC(=N)N)NC(=O)CNC(=O)[C@H]([C@@H](C)O)NC(=O)[C@@H](NC(=O)[C@H](CCCNC(=N)N)NC(=O)CNC(=O)CN2CCN(CC(=O)O)CCN(CC(=O)O)CCN(CC(=O)O)CC2)CSSC[C@@H](C(=O)N[C@@H](Cc2ccc(O)cc2)C(=O)N2CCC[C@H]2C(=O)N[C@@H](CC(=O)O)C(=O)NCCOCCOCCOCCOCC(=O)N[C@@H](CCCCNC(=O)CCCc2ccc(C(F)(F)F)cc2)C(=O)O)NC(=O)[C@H](CC(C)C)NC(=O)[C@H](CCCNC(=N)N)NC(=O)CNC1=O [SFLAP3-ABCF3] ({DOTA}-GRCTGRGDLGRLCYPD[NH(CH2CH2O)4CH2CO]K(X1)-OH; disulfide 3-13)
percentage bound to albumin protein ([1]; 64Cu-labeled, filtration assay, FIG. 6): ~75%

change of albumin binding affinity versus the corresponding ABX conjugate [1, 3]: slightly increased binding affinity
SMILES: [N-]=[N+]=NCCCC[C@H](NC(=O)CN1CCN(CC(=O)O)CCN(CC(=O)O)CCN(CC(=O)O)CC1)C(=O)NCCCCCC(=O)N[C@H](CCCCCNC(=O)CCc1cc(F)c(F)c(F)c1)C(=O)O [hABF3P]

SMILES: [N-]=[N+]=NCCCC[C@H](NC(=O)CN1CCN(CC(=O)O)CCN(CC(=O)O)CCN(CC(=O)O)CC1)C(=O)NCC(=O)NCCCC[C@H](NCCC(=O)NCCCCc1ccc(C(F)(F)F)cc1)C(=O)O [εABCF3]
change of albumin binding affinity versus the corresponding ABX conjugate [1, 3]: significantly decrease its binding affinity
